Data: US20190116795A1, “USE OF TENVERMECTIN IN CONTROL OF HARMFUL INSECTS IN AGRICULTURAL AND FOREST CROPS” (ZHEJIANG HISUN PHARMACEUTICAL CO., LTD., priority 2016, published 2019)
≈ marks a conversion by molar mass, not a printed value. Like-named read-outs stand apart in the source and are kept apart here.

Tests used:
[1] = tested on: Laodelphax striatellus imagoes; assay: whole plant or invertebrate; settings: for Relative toxicity: maximum LC50 divided by LC50 of each agent, imidacloprid = 1
Description: Each original medicine was dissolved in DMF and formulated into a 10000 mg/L solution for later use.
Test insect source: The Laodelphax striatellus imagoes were collected in the rice fields of Jiaxing, Zhejiang, and were raised indoors with rice seedlings.
The soaking seedling method was used in this test. The test agents were diluted with tap water into five series of concentrations on the basis of pre-test to be used as test solutions. Specifically, lambda-cyhalothrin and imidacloprid were diluted to 5 mg/L, 10 mg/L, 25 mg/L, 50 mg/L and 100 mg/L; abamectin was diluted to 0.25 mg/L, 0.5 Mg/L, 1.0 mg/L, 2.5 mg/L and 5.0 mg/L; tenvermectin A was diluted to 0.05 mg/L, 0.10 mg/L, 0.25 mg/L, 0.5 mg/L and 1.0 mg/L. Rice seedlings that are sown indoors for about 25 days and have no rice planthopper eggs were taken, a few rice roots were left, the seedlings were soaked in pre-formed solution for 30 seconds then they were taken out and dried, and were put into a 3 cm×20 cm test tube. There was a little water at the bottom of the tube. 2-3 rice seedlings per tube, three repetitions per treatment, and the one treated with water was used as a control. Each tube receives 40-50 heads of Laodelphax striatellus, and the tubes were sealed with black cloth and were placed in a worm room under a temperature of (26±1) ° C. After 72 hours of treatment, the number of dead insects was checked. […] Experimental data statistics and analysis were performed using spss 19 software.
The relative toxicity index of the agent having the largest LC50 was set to be 1, and the relative toxicity index of each agent was determined by dividing the maximum LC50 by the LC50 value of each agent.

[2] = tested on: Nilaparvata lugens imagoes; assay: Indoor toxicity against Nilaparvata lugens imagoes, soaking seedling method; assay type: in vivo; settings: for LC50: Nilaparvata lugens imagoes, soaked rice seedlings, 72 hours, 26±1 °C; for Relative toxicity: maximum LC50 divided by LC50 of each agent, imidacloprid = 1
Excerpt: Test insect source: the Nilaparvata lugens imagoes were collected from the rice field in Jiaxing, Zhejiang and were raised indoors with rice seedlings.
The soaking seedling method was used in this test.

[3] = tested on: Frankliniella occidentalis Pergande imagoes; assay: Indoor toxicity against Frankliniella occidentalis Pergande imagoes, impregnation method; assay type: in vivo; settings: for LC50: Frankliniella occidentalis Pergande imagoes, impregnation, 48 hours after medication, 26 °C; for Relative toxicity: maximum LC50 divided by LC50 of each agent, imidacloprid = 1
Excerpt: The impregnation method was used. […] The quantitative Frankliniella occidentalis Pergande (15-20 heads) in the suction trap were flicked into the solution in the insect box, and the solution was gently stirred with a glass rod for 10 seconds, and the insect box was quickly removed from the solution, and when the solution was drained out from the insect box, the residual solution on the copper net was blotted with absorbent paper from the bottom of the insect box, and then a 3 cm long kidney bean slice (Frankliniella occidentalis Pergande feed) was put into the insect box, and finally the insect box was sealed with a parafilm. […] The sealed insect box was placed in a HPG280H light incubator under a temperature of 26° C. and a humidity of 70%.

[4] = tested on: Coptotermes formosanus Shiraki; assay: Indoor toxicity against Coptotermes formosanus Shiraki, topical drop with microinjector; assay type: in vivo; settings: for Relative toxicity: maximum LC50 divided by LC50 of each agent, abamectin = 1
Description: Specifically, abamectin was diluted to 0.01 mg/L, 0.025 mg/L, 0.05 mg/L, 0.10 mg/L and 0.25 mg/L; tenvermectin A and tenvermectin B were diluted to 0.001 mg/L, 0.0025 mg/L, 0.005 mg/L, 0.01 mg/L and 0.025 mg/L. The termites to be tested were placed in culture dishes with a diameter of 15 cm, and 20 worker ants were placed in each dish. During the test, a microinjector was used to drop 1 μI of the solution to the thorax and abdome of each termite for a total of 3 repetitions. One fungus comb was placed in each dish for termites to inhabit and a wet absorbent cotton ball was placed to moisturize. After completing dropping the solution, the culture dish was placed in a chamber under a constant temperature of 18±1° C. and a constant humidity and was cultivated in dark conditions, the death conditions were observed 24 hours and 48 hours after dropping the solution respectively. A writing brush was used to touch the various parts of the bodies of the termites and the termites that are completely immobile were judged to be dead.

zebrafish = assay: Toxicity test on zebrafish, semi-static method; assay type: in vivo, Brachydanio rerio
Description: Test fish and water: zebrafish (Brachydanio rerio) were purchased from Zhejiang Academy of Agricultural Sciences and were of uniform size with an average body length of 2-3 cm and an average body weight of 0.3 g. They were domesticated for 7 days indoors before the test. The natural mortality rate was zero. Feeding was stopped 1 day before the test and the fish were not fed during the test. The test water was tap water after removing residual chlorine by exposure to the sun for more than 24 hours, and the pH was 6.8.
The sample was formulated into 50 mg/ml mother liquor with DMF.
Method: Semi-static method. Three level differences were set for each sample:
0.5 ppm, 1.0 ppm and 2.0 ppm, and three sets of parallels were set for each level difference, 10 zebrafish were raised for each group, and blank controls (one group without agents and one group with only solvent) were set. The corresponding volume of mother liquor was taken according to the concentration as required for each sample, and the volume of each sample was adjusted to 150 μl with DMF, and then each sample was added to the test group (containing 1.6 L of water). The room temperature was controlled at 22±2° C. for 96 hours, and the water was changed every 24 hours and the samples were re-added. The fish mortality rate was recorded for the first 8 hours and at 24, 48, 72, and 96 hours, and the dead fish were removed in time. Finally, the agents were divided into three grades according to the values of LC50: low-toxic pesticides with a LC50>10 ppm, middle-toxic pesticides with a LC50 of 1.0-10 ppm, and high-toxic pesticides with a LC50<1.0 ppm.

cabbage Phyllotreta = assay: Field efficacy test against cabbage Phyllotreta; assay type: in vivo; settings: 1 day, 3 days and 7 days after medication
Description: In the laboratory, the above-mentioned original medicines were respectively formulated into the following formulations for later use: 1.8% abamectin emulsifiable concentrate, 1.8% tenvermectin A emulsifiable concentrate, 1.8% tenvermectin B emulsifiable concentrate, 5% imidacloprid emulsifiable concentrate, 5% acetamiprid emulsifiable concentrate, 2.5% lambda-cyhalothrin emulsifiable concentrate.
The test was conducted in Linhai City, and the test crop was cabbage, and the object to be controlled was Phyllotreta.
The experiment consisted of 7 treatments, 3 replicates per treatment, 21 sections in total. The sections were randomly arranged, the area for each section was 66.7 m^2. A type of knapsack manual sprayer was used to spray once, the amount of each section was calculated according to the amount of 50 ml/mu, and the leaves were sprayed evenly. Each treatment was isolated from each other to avoid mutual interference. A blank control was set, and the blank control was sprayed with water. The population base of insects was investigated before medication, and the number of live insects was investigated 1 day, 3 days, and 7 days after medication, and a total of 4 investigations were conducted. 20 plants were randomly investigated per section. The rate of reduction of population was calculated and the control effect was corrected. No other pesticides were used during the test. […]

Bemisia tabaci imagoes = assay: Indoor toxicity against Bemisia tabaci imagoes, liquid membrane impregnation method of blades; assay type: in vivo; settings: for Relative toxicity: maximum LC50 divided by LC50 of each agent, acetamiprid = 1
Description: The liquid membrane impregnation method of blades was used. […] One tomato leaf was placed in each culture dish. Three repetitions per treatment, a leaf was soaked with water, dried, and then was placed in a culture dish to be used as a control. The Bemisia tabaci imagoes were gently patted into the culture dish, about 30 to 40 imagoes in each dish. The dishes were sealed with plastic wrap, several small holes were made on the plastic wrap to facilitate ventilation. After 24 hours, the death of Bemisia tabaci imagoes was checked under a binocular microscope (the anatomical needle was used to gently touch the Bemisia tabaci imagoes, and the motionless ones were regarded to be dead). Experimental data statistics and analysis were performed with spss 19 software.

[5] = Laodelphax striatellus, in Oryza sativa, 72 h
[6] = Bemisia tabaci imagoes, soaked tomato leaves, death checked after 24 hours

Compound: O=[N+]([O-])NC1=NCCN1Cc1ccc(Cl)nc1 [Imidacloprid]
- LC50 [1, 5]: 31.8 µg/mL (≈ 124 µM)
- Relative toxicity [1]: 1
- LC50 ([2]; read-out: LC50): 33.9 µg/mL (≈ 132 µM)
- Relative toxicity [2]: 1
- LC50 ([3]; read-out: LC50): 39.1 µg/mL (≈ 153 µM)
- Relative toxicity [3]: 1

Compound: CC1(C)[C@H](C(=O)O[C@H](C#N)c2cccc(Oc3ccccc3)c2)[C@@H]1/C=C(\Cl)C(F)(F)F (racemic) [Lambda-cyhalothrin]
- LC50 [1, 5]: 12 µg/mL (≈ 26.7 µM)
- Relative toxicity [1]: 2.648
- LC50 ([2]; read-out: LC50): 17.7 µg/mL (≈ 39.4 µM)
- Relative toxicity [2]: 1.923

Compound: CC[C@H]1O[C@]2(CCC1C)C[C@@H]1C[C@@H](C/C=C(\C)C(OC3C[C@H](OC)C(OC4C[C@H](OC)C(O)[C@H](C)O4)[C@H](C)O3)C(C)/C=C/C=C3\CO[C@@H]4[C@H](O)C(C)=C[C@@H](C(=O)O1)[C@]34O)O2 (some centres unmarked) [Tenvermectin B, tenvermectin B]
- LC50 ([4]; in vivo): 0.0066 µg/mL (≈ 0.00779 µM)
- Relative toxicity [4]: 6.21
- Surviving condition (survival rate %) (zebrafish; 0.5 ppm, 8 h): 100%
- Surviving condition (survival rate %) (zebrafish; 0.5 ppm, 24 h): 70%
- Surviving condition (survival rate %) (zebrafish; 0.5 ppm, 48 h): 50%
- Surviving condition (survival rate %) (zebrafish; 0.5 ppm, 72 h): 0%
- Surviving condition (survival rate %) (zebrafish; 1.0 ppm, 8 h): 53%
- Surviving condition (survival rate %) (zebrafish; 1.0 ppm, 24 h): 0%
- Surviving condition (survival rate %) (zebrafish; 2.0 ppm, 8 h): 10%
- Surviving condition (survival rate %) (zebrafish; 2.0 ppm, 24 h): 0%
- control effect on cabbage Phyllotreta (in words) (cabbage Phyllotreta): no control effect

Compound: CO[C@H]1CC(OC2[C@H](C)OC(OC3/C(C)=C/C[C@@H]4C[C@@H](C[C@]5(CCC(C)[C@@H](C)O5)O4)OC(=O)[C@@H]4C=C(C)[C@@H](O)[C@H]5OC/C(=C\C=C\C3C)[C@]54O)C[C@@H]2OC)O[C@@H](C)C1O (some centres unmarked) [Tenvermectin A, tenvermectin A]
- LC50 (Bemisia tabaci imagoes; [6]): 0.023 µg/mL (≈ 0.0276 µM)
- Relative toxicity (Bemisia tabaci imagoes): 110.478
- LC50 ([1]; in vivo): 0.296 µg/mL (≈ 0.355 µM)
- Relative toxicity [1]: 107.490
- LC50 ([4]; in vivo): 0.0086 µg/mL (≈ 0.0103 µM)
- Relative toxicity [4]: 4.77
- Surviving condition (survival rate %) (zebrafish; 0.5 ppm, 8 h): 100%
- Surviving condition (survival rate %) (zebrafish; 0.5 ppm, 24 h): 100%
- Surviving condition (survival rate %) (zebrafish; 0.5 ppm, 48 h): 100%
- Surviving condition (survival rate %) (zebrafish; 0.5 ppm, 72 h): 100%
- Surviving condition (survival rate %) (zebrafish; 0.5 ppm, 96 h): 100%
- Surviving condition (survival rate %) (zebrafish; 1.0 ppm, 8 h): 100%
- Surviving condition (survival rate %) (zebrafish; 1.0 ppm, 24 h): 100%
- Surviving condition (survival rate %) (zebrafish; 1.0 ppm, 48 h): 100%
- Surviving condition (survival rate %) (zebrafish; 1.0 ppm, 72 h): 100%
- Surviving condition (survival rate %) (zebrafish; 1.0 ppm, 96 h): 100%
- Surviving condition (survival rate %) (zebrafish; 2.0 ppm, 8 h): 100%
- Surviving condition (survival rate %) (zebrafish; 2.0 ppm, 24 h): 100%
- Surviving condition (survival rate %) (zebrafish; 2.0 ppm, 48 h): 100%
- Surviving condition (survival rate %) (zebrafish; 2.0 ppm, 72 h): 93%
- Surviving condition (survival rate %) (zebrafish; 2.0 ppm, 96 h): 80%
- control effect on cabbage Phyllotreta (in words) (cabbage Phyllotreta): no control effect

Compound: C/C(=N\C#N)N(C)Cc1ccc(Cl)nc1 [Acetamiprid]
- LC50 (Bemisia tabaci imagoes; Bemisia tabaci, in Solanum lycopersicum, 24 h): 2.54 µg/mL (≈ 11.4 µM)
- Relative toxicity (Bemisia tabaci imagoes): 1

Compound: Abamectin
- LC50 (Bemisia tabaci imagoes; [6]): 0.225 µg/mL
- Relative toxicity (Bemisia tabaci imagoes): 11.293
- LC50 ([1]; Laodelphax striatellus imagoes, soaked rice seedlings, 72 hours, 26±1 °C): 3.101 µg/mL
- Relative toxicity [1]: 10.260
- LC50 [2]: 3.062 µg/mL
- Relative toxicity [2]: 11.063
- LC50 [3]: 2.648 µg/mL
- Relative toxicity [3]: 14.759
- LC50 ([4]; Coptotermes formosanus worker ants, 1 μl dropped per termite, 18±1 °C, observed 24 and 48 hours (time of LC50 not stated)): 0.041 µg/mL
- Relative toxicity [4]: 1
- Surviving condition (survival rate %) (zebrafish; 0.5 ppm, 8 h): 0%
- Surviving condition (survival rate %) (zebrafish; 1.0 ppm, 8 h): 0%
- Surviving condition (survival rate %) (zebrafish; 2.0 ppm, 8 h): 0%

Compound: Ivermectin
- Surviving condition (survival rate %) (zebrafish; 0.5 ppm, 8 h): 0%
- Surviving condition (survival rate %) (zebrafish; 1.0 ppm, 8 h): 0%
- Surviving condition (survival rate %) (zebrafish; 2.0 ppm, 8 h): 0%

Compound: CC[C@H](C)C1O[C@]2(C=C[C@@H]1C)C[C@@H]1C[C@@H](C/C=C(\C)[C@@H](O[C@H]3C[C@H](OC)[C@@H](O[C@H]4C[C@H](OC)[C@H](NC)[C@H](C)O4)[C@H](C)O3)[C@@H](C)/C=C/C=C3\CO[C@@H]4[C@H](O)C(C)=C[C@@H](C(=O)O1)[C@]34O)O2.O=C(O)c1ccccc1 (some centres unmarked) [Methylamino abamectin benzoate]
- LC50 [3]: 0.318 µg/mL
- Relative toxicity [3]: 122.896
- Surviving condition (survival rate %) (zebrafish; 0.5 ppm, 8 h): 0%
- Surviving condition (survival rate %) (zebrafish; 1.0 ppm, 8 h): 0%
- Surviving condition (survival rate %) (zebrafish; 2.0 ppm, 8 h): 0%

Compound: Milbemycin
- LC50 (Bemisia tabaci imagoes; in vivo): 0.210 µg/mL
- Relative toxicity (Bemisia tabaci imagoes): 12.100
- Surviving condition (survival rate %) (zebrafish; 0.5 ppm, 8 h): 0%
- Surviving condition (survival rate %) (zebrafish; 1.0 ppm, 8 h): 0%
- Surviving condition (survival rate %) (zebrafish; 2.0 ppm, 8 h): 0%
